# Test results reported in US10519152B2, “Compounds and their use in treating cancer” (AstraZeneca AB, priority 2017, dated 2019).
# Target: T1, recombinant human Estrogen Receptor alpha ligand binding domain, residues 307-554 (ER alpha-LBD (GST)) (Homo sapiens, UniProt P03372)
# T1 construct: made in house
# T1 sequence (P03372 307-554): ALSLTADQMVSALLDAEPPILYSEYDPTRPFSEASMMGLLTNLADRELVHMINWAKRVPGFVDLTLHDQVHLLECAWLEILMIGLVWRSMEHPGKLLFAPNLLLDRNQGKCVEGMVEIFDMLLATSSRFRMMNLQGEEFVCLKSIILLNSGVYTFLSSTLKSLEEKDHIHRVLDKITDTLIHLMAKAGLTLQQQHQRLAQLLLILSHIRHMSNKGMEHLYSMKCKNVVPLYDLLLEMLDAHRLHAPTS
# Experiment: ERα binding assay (LanthaScreen TR-FRET competition)
# Conditions: TR-FRET competition with Fluormone ES2 tracer, 4 hours at room temperature; single experiment or average of two or more
row,Compound,IC50
1,"Cc1ncsc1-c1ccc(CNC(=O)[C@@H]2C[C@@H](O)CN2C(=O)[C@@H](NC(=O)C(F)(F)OCCOCCCCOc2cc(F)c([C@@H]3c4[nH]c5ccccc5c4C[C@@H](C)N3CC(C)(C)F)c(F)c2)C(C)(C)C)cc1 [Example 121, (2S,4R)-1-((S)-2-(2-(2-(4-(3,5-Difluoro-4-((1R,3R)-2-(2-fluoro-2-methylpropyl)-3-methyl-2,3,4,9-tetrahydro-1H-pyrido[3,4-b]indol-1-yl)phenoxy)butoxy)ethoxy)-2,2-difluoroacetamido)-3,3-dimethylbutanoyl)-4-hydroxy-N-(4-(4-methylthiazol-5-yl)benzyl)pyrrolidine-2-carboxamide]",700 pM
2,"Cc1ncsc1-c1ccc([C@H](C)NC(=O)[C@@H]2C[C@@H](O)CN2C(=O)[C@@H](NC(=O)C(F)(F)OCCOCCCCOc2cc(F)c([C@@H]3c4[nH]c5ccccc5c4C[C@@H](C)N3CC(C)(C)F)c(F)c2)C(C)(C)C)cc1 [Example 122, (2S,4R)-1-((S)-2-(2-(2-(4-(3,5-Difluoro-4-((1R,3R)-2-(2-fluoro-2-methylpropyl)-3-methyl-2,3,4,9-tetrahydro-1H-pyrido[3,4-b]indol-1-yl)phenoxy)butoxy)ethoxy)-2,2-difluoroacetamido)-3,3-dimethylbutanoyl)-4-hydroxy-N—((S)-1-(4-(4-methylthiazol-5-yl)phenyl)ethyl)pyrrolidine-2-carboxamide]",1500 pM
3,"Cc1ncsc1-c1ccc(CNC(=O)[C@@H]2C[C@@H](O)CN2C(=O)[C@@H](NC(=O)COCC(F)(F)COCCCOc2cc(F)c([C@@H]3c4[nH]c5ccccc5c4C[C@@H](C)N3CC(C)(C)F)c(F)c2)C(C)(C)C)cc1 [Example 125, (2S,4R)-1-((S)-2-(2-(3-(3-(3,5-Difluoro-4-((1R,3R)-2-(2-fluoro-2-methylpropyl)-3-methyl-2,3,4,9-tetrahydro-1H-pyrido[3,4-b]indol-1-yl)phenoxy)propoxy)-2,2-difluoropropoxy)acetamido)-3,3-dimethylbutanoyl)-4-hydroxy-N-(4-(4-methylthiazol-5-yl)benzyl)pyrrolidine-2-carboxamide]",1000 pM
4,"Cc1ncsc1-c1ccc(CNC(=O)[C@@H]2C[C@@H](O)CN2C(=O)[C@@H](NC(=O)COCCOCCC(F)(F)CCOc2cc(F)c([C@@H]3c4[nH]c5ccccc5c4C[C@@H](C)N3CC(C)(C)F)c(F)c2)C(C)(C)C)cc1 [Example 127, (2S,4R)-1-((S)-2-(2-(2-((5-(3,5-Difluoro-4-((R,3R)-2-(2-fluoro-2-methylpropyl)-3-methyl-2,3,4,9-tetrahydro-1H-pyrido[3,4-b]indol-1-yl)phenoxy)-3,3-difluoropentyl)oxy)ethoxy)acetamido)-3,3-dimethylbutanoyl)-4-hydroxy-N-(4-(4-methylthiazol-5-yl)benzyl)pyrrolidine-2-carboxamide]",500 pM
5,"Cc1ncsc1-c1ccc(CNC(=O)[C@@H]2C[C@@H](O)CN2C(=O)[C@@H](NC(=O)COCCOCCCCOc2cc(F)c([C@@H]3c4[nH]c5ccccc5c4C[C@@H](C)N3CC(C)(C)F)c(F)c2)C(C)(C)C)cc1 [Example 128, (2S,4R)-1-((S)-2-(2-(2-(4-(3,5-Difluoro-4-((1R,3R)-2-(2-fluoro-2-methylpropyl)-3-methyl-2,3,4,9-tetrahydro-1H-pyrido[3,4-b]indol-1-yl)phenoxy)butoxy)ethoxy)acetamido)-3,3-dimethylbutanoyl)-4-hydroxy-N-(4-(4-methylthiazol-5-yl)benzyl)pyrrolidine-2-carboxamide]",600 pM
6,"Cc1ncsc1-c1ccc(CNC(=O)[C@@H]2C[C@@H](O)CN2C(=O)[C@@H](NC(=O)COCCCOCCCCOc2cc(F)c([C@@H]3c4[nH]c5ccccc5c4C[C@@H](C)N3CC(C)(C)F)c(F)c2)C(C)(C)C)cc1 [Example 129, (2S,4R)-1-((S)-2-(2-(3-(4-(3,5-Difluoro-4-((1R,3R)-2-(2-fluoro-2-methylpropyl)-3-methyl-2,3,4,9-tetrahydro-1H-pyrido[3,4-b]indol-1-yl)phenoxy)butoxy)propoxy)acetamido)-3,3-dimethylbutanoyl)-4-hydroxy-N-(4-(4-methylthiazol-5-yl)benzyl)pyrrolidine-2-carboxamide]",1000 pM
7,"Cc1ncsc1-c1ccc(CNC(=O)[C@@H]2C[C@@H](O)CN2C(=O)[C@@H](NC(=O)COCCC(F)(F)CCOc2cc(F)c([C@@H]3c4[nH]c5ccccc5c4C[C@@H](C)N3CC(C)(C)F)c(F)c2)C(C)(C)C)cc1 [Example 130, (2S,4R)-1-((S)-2-(2-((5-(3,5-Difluoro-4-((1R,3R)-2-(2-fluoro-2-methylpropyl)-3-methyl-2,3,4,9-tetrahydro-1H-pyrido[3,4-b]indol-1-yl)phenoxy)-3,3-difluoropentyl)oxy)acetamido)-3,3-dimethylbutanoyl)-4-hydroxy-N-(4-(4-methylthiazol-5-yl)benzyl)pyrrolidine-2-carboxamide]",900 pM
8,"Cc1ncsc1-c1ccc(CNC(=O)[C@@H]2C[C@@H](O)CN2C(=O)[C@@H](NC(=O)CNCCC(F)(F)CCOc2cc(F)c([C@@H]3c4[nH]c5ccccc5c4C[C@@H](C)N3CC(C)(C)F)c(F)c2)C(C)(C)C)cc1 [Example 131, (2S,4R)-1-((S)-2-(2-((5-(3,5-Difluoro-4-((1R,3R)-2-(2-fluoro-2-methylpropyl)-3-methyl-2,3,4,9-tetrahydro-1H-pyrido[3,4-b]indol-1-yl)phenoxy)-3,3-difluoropentyl)amino)acetamido)-3,3-dimethylbutanoyl)-4-hydroxy-N-(4-(4-methylthiazol-5-yl)benzyl)pyrrolidine-2-carboxamide]",1600 pM
9,"Cc1ncsc1-c1ccc(CNC(=O)[C@@H]2C[C@@H](O)CN2C(=O)[C@@H](NC(=O)COCc2cccc(COc3cc(F)c([C@@H]4c5[nH]c6ccccc6c5C[C@@H](C)N4CC(C)(C)F)c(F)c3)n2)C(C)(C)C)cc1 [Example 132, (2S,4R)-1-((S)-2-(2-((6-((3,5-Difluoro-4-((1R,3R)-2-(2-fluoro-2-methylpropyl)-3-methyl-2,3,4,9-tetrahydro-1H-pyrido[3,4-b]indol-1-yl)phenoxy)methyl)pyridin-2-yl)methoxy)acetamido)-3,3-dimethylbutanoyl)-4-hydroxy-N-(4-(4-methylthiazol-5-yl)benzyl)pyrrolidine-2-carboxamide]",500 pM
10,"Cc1ncsc1-c1ccc(CNC(=O)[C@@H]2C[C@@H](O)CN2C(=O)[C@@H](NC(=O)COCc2ccnc(COc3cc(F)c([C@@H]4c5[nH]c6ccccc6c5C[C@@H](C)N4CC(C)(C)F)c(F)c3)c2)C(C)(C)C)cc1 [Example 134, (2S,4R)-1-((S)-2-(2-((2-((3,5-Difluoro-4-((1R,3R)-2-(2-fluoro-2-methylpropyl)-3-methyl-2,3,4,9-tetrahydro-1H-pyrido[3,4-b]indol-1-yl)phenoxy)methyl)pyridin-4-yl)methoxy)acetamido)-3,3-dimethylbutanoyl)-4-hydroxy-N-(4-(4-methylthiazol-5-yl)benzyl)pyrrolidine-2-carboxamide]",600 pM
11,"Cc1ncsc1-c1ccc(CNC(=O)[C@@H]2C[C@@H](O)CN2C(=O)[C@@H](NC(=O)COCCCCCOCCCOc2cc(F)c([C@@H]3c4[nH]c5ccccc5c4C[C@@H](C)N3CC(C)(C)F)c(F)c2)C(C)(C)C)cc1 [Example 136, (2S,4R)-1-((S)-2-(2-((5-(3-(3,5-Difluoro-4-((1R,3R)-2-(2-fluoro-2-methylpropyl)-3-methyl-2,3,4,9-tetrahydro-1H-pyrido[3,4-b]indol-1-yl)phenoxy)propoxy)pentyl)oxy)acetamido)-3,3-dimethylbutanoyl)-4-hydroxy-N-(4-(4-methylthiazol-5-yl)benzyl)pyrrolidine-2-carboxamide]",1200 pM
12,"Cc1ncsc1-c1ccc([C@H](C)NC(=O)[C@@H]2C[C@@H](O)CN2C(=O)[C@@H](NC(=O)COCCCOCCCCCOc2cc(F)c([C@@H]3c4[nH]c5ccccc5c4C[C@@H](C)N3CC(C)(C)F)c(F)c2)C(C)(C)C)cc1 [Example 137, (2S,4R)-1-((S)-2-(2-(3-((5-(3,5-Difluoro-4-((R,3R)-2-(2-fluoro-2-methylpropyl)-3-methyl-2,3,4,9-tetrahydro-1H-pyrido[3,4-b]indol-1-yl)phenoxy)pentyl)oxy)propoxy)acetamido)-3,3-dimethylbutanoyl)-4-hydroxy-N—((S)-1-(4-(4-methylthiazol-5-yl)phenyl)ethyl)pyrrolidine-2-carboxamide]",800 pM
13,"Cc1ncsc1-c1ccc(CNC(=O)[C@@H]2C[C@@H](O)CN2C(=O)[C@@H](NC(=O)COCCCOCCCCCOc2cc(F)c([C@@H]3c4[nH]c5ccccc5c4C[C@@H](C)N3CC(C)(C)F)c(F)c2)C(C)(C)C)cc1 [Example 138, (2S,4R)-1-((S)-2-(2-(3-((5-(3,5-Difluoro-4-((R,3R)-2-(2-fluoro-2-methylpropyl)-3-methyl-2,3,4,9-tetrahydro-1H-pyrido[3,4-b]indol-1-yl)phenoxy)pentyl)oxy)propoxy)acetamido)-3,3-dimethylbutanoyl)-4-hydroxy-N-(4-(4-methylthiazol-5-yl)benzyl)pyrrolidine-2-carboxamide]",600 pM
14,"Cc1ncsc1-c1ccc(CNC(=O)[C@@H]2C[C@@H](O)CN2C(=O)[C@@H](NC(=O)COCCOCCCCCOc2cc(F)c([C@@H]3c4[nH]c5ccccc5c4C[C@@H](C)N3CC(F)(F)F)c(F)c2)C(C)(C)C)cc1 [Example 139, (2S,4R)-1-((S)-2-(2-(2-((5-(3,5-Difluoro-4-((1R,3R)-3-methyl-2-(2,2,2-trifluoroethyl)-2,3,4,9-tetrahydro-1H-pyrido[3,4-b]indol-1-yl)phenoxy)pentyl)oxy)ethoxy)acetamido)-3,3-dimethylbutanoyl)-4-hydroxy-N-(4-(4-methylthiazol-5-yl)benzyl)pyrrolidine-2-carboxamide]",500 pM
